Laboratory results published in patent US20160183527A1, “FUNGICIDAL COMPOSITIONS” (Dow AgroSciences LLC, priority 2014, published 2016).

Legend:
Format in all cases: physicochemical
[1] = Approximate (relative) solubility of active ingredients in organic solvents at ambient temperature; settings: 0.2 g of Compound A mixed with 1.38 g of cyclohexanone
Method: The approximate solubility of Compound A was determined by mixing a known mass of the active ingredient with an increasing mass of each solvent at ambient temperature. […] The solubility of Compound A in the solvents used in this screening procedure was generally classified within the following concentration ranges: […]

[2] = Solubility of Compound A and prothioconazole in benzyl acetate/AMD810 blends at 10° C. (HPLC); settings: both actives saturated
Method: A study of the Compound A and prothioconazole solubility in blends of benzyl acetate/AMD810 was conducted. To each solvent blend both actives were added until each was saturated and the resulting mixtures were then stored at 10° C. until equilibrium was obtained. Aliquots of the supernatant layer were taken from each sample, filtered (0.45 μm mesh) and analyzed by HPLC to determine the solution concentration of each active in the blends.

[3] = Accelerated storage stability, 54° C. for 2 weeks (HPLC); settings: 2 weeks at 54° C.
Method: Sample 1 was stored at 54° C. for 2 weeks in a closed container.
Sample 6 was stored at 54° C. for 2 weeks in a closed container.
Sample 7 was stored at 54° C. for 2 weeks in a closed container.

With COc1ccnc(C(=O)N[C@H]2COC(=O)[C@H](Cc3ccccc3)[C@@H](OC(=O)C(C)C)[C@H](C)OC2=O)c1OCOC(=O)C(C)C [Compound A, propanoic acid, 2-methyl-, [[4-methoxy-2-[[[(3S,7R,8R,9S)-9-methyl-8-(2-methyl-1-oxopropoxy)-2,6-dioxo-7-(phenylmethyl)-1,5-dioxonan-3-yl]amino]carbonyl]-3-pyridinyl]oxy]methyl ester] the “Compound A content of clear solution in cyclohexanone” value [1] was 12.6 % w/w, the “Compound A Solubility at 10° C.” value ([2]; benzyl acetate 0 wt % in benzyl acetate/AMD810 blend) was 3.3 % w/w and the “Compound A Solubility at 10° C.” value ([2]; benzyl acetate 20 wt % in benzyl acetate/AMD810 blend) was 4.3 % w/w. The “Compound A Solubility at 10° C.” value ([2]; benzyl acetate 40 wt % in benzyl acetate/AMD810 blend) was 6.5 % w/w, the “Compound A Solubility at 10° C.” value ([2]; benzyl acetate 60 wt % in benzyl acetate/AMD810 blend) was 11.0 % w/w and the “Compound A Solubility at 10° C.” value ([2]; benzyl acetate 80 wt % in benzyl acetate/AMD810 blend) was 12.0 % w/w. The “Compound A after Storage (% retention)” value ([3]; composition wt %: Compound A 3.4, AMD 810 96.0, third solvent none) was 49^ % retention, the “Compound A after Storage (% retention)” value ([3]; composition wt %: Compound A 4.9, benzyl acetate 94.1, third solvent none) was 85^ % retention and the “Compound A after Storage (% retention)” value ([3]; composition wt %: Compound A 12.0, cyclohexanone 85.7) was 96^ % retention. For the same compound, the “Compound A after Storage (% retention)” value ([3]; wt %: Compound A 4.9, pyraclostrobin 6.3, benzyl acetate 41.2, AMD 810 22.2, cyclohexanone 9.8) was 98^ % retention, the “Compound A after Storage (% retention)” value ([3]; wt %: Compound A 5.0, pyraclostrobin 6.4, benzyl acetate 40.9, AMD 810 22.0, 2-ethyl hexanol 10.0) was 95^ % retention and the “Compound A after Storage (% retention)” value ([3]; wt %: Compound A 7.7, pyraclostrobin 9.8, benzyl acetate 37.1, AMD 810 20.0, cyclohexanone 9.6) was 97^ % retention. For the same compound, the “Compound A after Storage (% retention)” value ([3]; wt %: Compound A 7.8, pyraclostrobin 9.9, benzyl acetate 36.7, AMD 810 19.8, 2-ethyl hexanol 9.7) was 97^ % retention.
